# Laboratory results: ChEMBL document CHEMBL2202958, “Development of potent macrocyclic inhibitors of genotype 3a HCV NS3/4A protease” (Bioorg Med Chem Lett, 2012)
# Key:
# [1] = Inhibition of HCV3a NS3/4A protease by time-resolved fluorescence assay; set-up: species or system Hepatitis C virus subtype 3a
# Hepatitis C virus [2] = experiment: Antiviral activity against HCV1b con1 infected in human Huh-7 cells assessed as inhibition of viral replication after 24 hrs in presence of 50% normal human serum; assay type: functional, organism-based, Hepacivirus hominis; details: Con1, Huh-7, 24 h
# [3] = Inhibition of HCV1b BK NS3/4A protease expressed in Escherichia coli after 1 hr by time-resolved fluorescence assay; set-up: species or system Hepatitis C virus (isolate BK)
# Hepatitis C virus [4] = experiment: Antiviral activity against HCV1b con1 infected in human Huh-7 cells assessed as inhibition of viral replication after 24 hrs in presence of 10% fetal bovine serum; assay type: functional, organism-based, Hepacivirus hominis; details: Con1, Huh-7, 24 h
# [5] = Drug level in Sprague-Dawley rat liver at 5 mg/kg, po after 4 hrs; assay type: ADME, organism-based; set-up: dose 5 mg/kg, route oral; details: read-out: Drug uptake
# [6] = Inhibition of HCV3a NS3/4A protease; set-up: species or system Hepatitis C virus subtype 3a
SMILES,Ki [1],IC50 (Hepatitis C virus [2]),Ki [3],IC50 (Hepatitis C virus [4]),concentration at 4 h [5],Ki [6]
C=C[C@@H]1C[C@]1(NC(=O)[C@@H]1C[C@@H]2CN1C(=O)[C@H](C1CCCC1)NC(=O)OCC(C)(C)CCCc1cc3c(nc4ccc(Cl)cc4c3cc1OC)O2)C(=O)NS(=O)(=O)C1CC1,36 nM,31 nM,< 0.02 nM,7 nM,,
C=C[C@@H]1C[C@]1(NC(=O)[C@@H]1C[C@@H]2CN1C(=O)[C@H](C1CCCC1)NC(=O)OCC(C)(C)CCCc1cc3c(nc4cc(C)ccc4c3cc1OC)O2)C(=O)NS(=O)(=O)C1CC1,1.9 nM,15 nM,< 0.02 nM,4 nM,16 µM,
C=C[C@@H]1C[C@]1(NC(=O)[C@@H]1C[C@@H]2CN1C(=O)[C@H](C1CCCC1)NC(=O)OCC(C)(C)CCCc1cc3c(nc4cc(C#N)ccc4c3cc1OC)O2)C(=O)NS(=O)(=O)C1CC1,0.8 nM,13 nM,< 0.02 nM,4 nM,7.5 µM,
C=C[C@@H]1C[C@]1(NC(=O)[C@@H]1C[C@@H]2CN1C(=O)[C@H](C1CCCC1)NC(=O)OCC(C)(C)CCCc1cc3c(nc4cc(F)ccc4c3cc1OC)O2)C(=O)NS(=O)(=O)C1CC1,0.9 nM,43 nM,< 0.02 nM,9 nM,22 µM,
C=C[C@@H]1C[C@]1(NC(=O)[C@@H]1C[C@@H]2CN1C(=O)[C@H](C1CCCCC1)NC(=O)OCC(C)(C)CCCc1cc3c(cc(-c4ccccc4)nc3cc1OC)O2)C(=O)NS(=O)(=O)C1CC1,21 nM,28 nM,0.05 nM,3.6 nM,9.9 µM,
C=C[C@@H]1C[C@]1(NC(=O)[C@@H]1C[C@@H]2CN1C(=O)[C@H](C1CCCCC1)NC(=O)OCC(C)(C)CCCc1cc3c(cc(-c4ccc(OC)cc4)nc3cc1OC)O2)C(=O)NS(=O)(=O)C1CC1,18 nM,25 nM,0.07 nM,3 nM,6.1 µM,
C=C[C@@H]1C[C@]1(NC(=O)[C@@H]1C[C@@H]2CN1C(=O)[C@H](C1CCCCC1)NC(=O)OCC(C)(C)CCCc1cc3c(cc(-c4cccc(OC)c4)nc3cc1OC)O2)C(=O)NS(=O)(=O)C1CC1,78 nM,19 nM,0.07 nM,6 nM,6.7 µM,
C=C[C@@H]1C[C@]1(NC(=O)[C@@H]1C[C@@H]2CN1C(=O)[C@H](C1CCCCC1)NC(=O)OCC(C)(C)CCCc1cc3c(cc(-c4ccccc4OC)nc3cc1OC)O2)C(=O)NS(=O)(=O)C1CC1,62 nM,31 nM,0.09 nM,7 nM,6.3 µM,
C=C[C@@H]1C[C@]1(NC(=O)[C@@H]1C[C@@H]2CN1C(=O)[C@H](C1CCCCC1)NC(=O)OCC(C)(C)CCCc1cc3c(cc(-c4ccc(F)cc4)nc3cc1OC)O2)C(=O)NS(=O)(=O)C1CC1,29 nM,110 nM,0.18 nM,11 nM,,
C=C[C@@H]1C[C@]1(NC(=O)[C@@H]1C[C@@H]2CN1C(=O)[C@H](C1CCCCC1)NC(=O)OCC(C)(C)CCCc1cc3c(cc(-c4cccnc4)nc3cc1OC)O2)C(=O)NS(=O)(=O)C1CC1,55 nM,92 nM,,27 nM,0.2 µM,
C=C[C@@H]1C[C@]1(NC(=O)[C@@H]1C[C@@H]2CN1C(=O)[C@H](C1CCCCC1)NC(=O)OCC(C)(C)CCCc1cc3c(cc(NC)nc3cc1OC)O2)C(=O)NS(=O)(=O)C1CC1,5.4 nM,90 nM,0.09 nM,1.6 nM,< 0.005 µM,
C=C[C@@H]1C[C@]1(NC(=O)[C@@H]1C[C@@H]2CN1C(=O)[C@H](C1CCCCC1)NC(=O)OCC(C)(C)CCCc1cc3c(cc(N4CCCCC4)nc3cc1OC)O2)C(=O)NS(=O)(=O)C1CC1,7.5 nM,26 nM,0.07 nM,5 nM,0.1 µM,
C=C[C@@H]1C[C@]1(NC(=O)[C@@H]1C[C@@H]2CN1C(=O)[C@H](C1CCCCC1)NC(=O)OCC(C)(C)CCCc1cc3c(cc(NC4CCCCC4)nc3cc1OC)O2)C(=O)NS(=O)(=O)C1CC1,7.6 nM,1200 nM,0.12 nM,39 nM,,
C=C[C@@H]1C[C@]1(NC(=O)[C@@H]1C[C@@H]2CN1C(=O)[C@H](C1CCCCC1)NC(=O)OCC(C)(C)CCCc1cc3c(cc(O)nc3cc1OC)O2)C(=O)NS(=O)(=O)C1CC1,23 nM,460 nM,0.07 nM,85 nM,0.07 µM,
C=C[C@@H]1C[C@]1(NC(=O)[C@@H]1C[C@@H]2CN1C(=O)[C@H](C1CCCCC1)NC(=O)OCC(C)(C)CCCc1cc3c(cc(OC)nc3cc1OC)O2)C(=O)NS(=O)(=O)C1CC1,4.1 nM,19 nM,0.04 nM,4 nM,5.4 µM,
C=C[C@@H]1C[C@]1(NC(=O)[C@@H]1C[C@@H]2CN1C(=O)[C@H](C1CCCCC1)NC(=O)OCC(C)(C)CCCc1cc3c(cc(OCC)nc3cc1OC)O2)C(=O)NS(=O)(=O)C1CC1,7.6 nM,43 nM,0.09 nM,6 nM,40 µM,
C=C[C@@H]1C[C@]1(NC(=O)[C@@H]1C[C@@H]2CN1C(=O)[C@H](C1CCCCC1)NC(=O)OCC(C)(C)CCCc1cc3c(cc(OC4CCCC4)nc3cc1OC)O2)C(=O)NS(=O)(=O)C1CC1,15 nM,34 nM,0.05 nM,5 nM,4.6 µM,
C=C[C@@H]1C[C@]1(NC(=O)[C@@H]1C[C@@H]2CN1C(=O)[C@H](C1CCCC1)NC(=O)OCC(C)(C)CCCc1cc3c(cc(OCc4csc(C)n4)nc3cc1OC)O2)C(=O)NS(=O)(=O)C1CC1,1.6 nM,26 nM,0.09 nM,5 nM,0.8 µM,
C=C[C@@H]1C[C@]1(NC(=O)[C@@H]1C[C@@H]2CN1C(=O)[C@H](C1CCCC1)NC(=O)OCC(C)(C)CCCc1cc3c(cc(OCc4csc(C(C)C)n4)nc3cc1OC)O2)C(=O)NS(=O)(=O)C1CC1,2 nM,26 nM,< 0.02 nM,4 nM,2.7 µM,
C=C[C@@H]1C[C@]1(NC(=O)[C@@H]1C[C@@H]2CN1C(=O)[C@H](C1CCCC1)NC(=O)OCC(C)(C)CCCc1cc3c(cc(OCc4ncn(C)n4)nc3cc1OC)O2)C(=O)NS(=O)(=O)C1CC1,1 nM,170 nM,0.03 nM,36 nM,0.03 µM,
C=C[C@@H]1C[C@]1(NC(=O)[C@@H]1C[C@@H]2CN1C(=O)[C@H](C1CCCC1)NC(=O)OCC(C)(C)CCCc1cc3c(cc(OCc4ncco4)nc3cc1OC)O2)C(=O)NS(=O)(=O)C1CC1,1.1 nM,16 nM,< 0.02 nM,4 nM,2.6 µM,
C=C[C@@H]1C[C@]1(NC(=O)[C@@H]1C[C@@H]2CN1C(=O)[C@H](C1CCCCC1)NC(=O)OCC(C)(C)CCCc1cc3c(cc4nccn4c3cc1OC)O2)C(=O)NS(=O)(=O)C1CC1,1.8 nM,140 nM,0.04 nM,43 nM,0.8 µM,
C=C[C@@H]1C[C@]1(NC(=O)[C@@H]1C[C@@H]2CN1C(=O)[C@H](C1CCCCC1)NC(=O)OCC(C)(C)CCCc1ccc3c(c1)c(cc1nccn13)O2)C(=O)NS(=O)(=O)C1CC1,5.2 nM,180 nM,0.08 nM,33 nM,0.7 µM,
C=C[C@@H]1C[C@]1(NC(=O)[C@@H]1C[C@@H]2CN1C(=O)[C@H](C1CCCC1)NC(=O)OCC(C)(C)CCCc1cc3c(nc4ccccc4c3cc1OC)O2)C(=O)NS(=O)(=O)C1CC1,1.7 nM,29 nM,< 0.02 nM,3 nM,27 µM,
CC[C@@H]1C[C@]1(NC(=O)[C@@H]1C[C@@H]2CN1C(=O)[C@H](C(C)(C)C)NC(=O)OCC(C)(C)CCCCc1cccc3c1CN(C3)C(=O)O2)C(=O)NS(=O)(=O)C1CC1 [VANIPREVIR],,,,,,54 nM
